Assays:
[1] = tested on: HUVEC cells; test: In vitro angiogenesis (matrigel tube formation) assay; type: cell-based, human
Experimental: In Vitro Angiogenesis (matrigel tube formation) Assay. Unpolymerized matrigel (7 mg/ml) was placed in the wells (100 μl/well) of a pre-chilled 48-well cell culture plate and then incubated at 37° C. for 30-45 minutes. HUVEC cells were harvested in trypsin and resuspended in EC medium (4×10^4 in 300 μl). Cells were treated with the different agents before plated onto the matrigel-coated plates. […] Microphotographs of the center of each well at low power (40×) were taken with a SPOT camera (Diagnostic Instruments Inc; Sterling Heights, Mich.) and the aid of an imaging capture software (Compix Inc Imaging Systems; Township, Pa.). The microphotographs were quantitatively analyzed (total tube length) with the Simple PCI imaging analysis software (Compix).
Matrigel tube formation assays. Samples collected from the purification process were exchanged into 1×PBS and reconstituted into 1× concentration (by volume) compared to the input tPA/captopril-treated plasma. They were tested in the matrigel tube formation assays at 10% (v/v) as follows. Unpolymerized matrigel (7 mg/ml) was placed in the wells (100 μl/well) of a pre-chilled 48-well cell culture plate and then incubated at 37° C. for 30-45 minutes for polymerization to take place. […] Tube formation was examined (4× magnification) through an inverted phase contrast microscope (Nikon Corporation; Tokyo, Japan) and recorded by a Spot RT camera (Diagnostic Instruments Inc; Sterling Heights, Mich.) using an automated image capture software (Compix Inc Imaging Systems; Township, Pa.).

[2] = tested on: blood vessels in bFGF-enriched matrigel plugs; test: In vivo matrigel-plug assay, agent mixed into matrigel; parameters: species or system mice
Experimental: In vivo matrigel-plug assays. The matrigel-plug assay was performed as described in Maeshima et al., (Maeshima et al., J Biol Chem 275:21340-8, 2000; Maeshima et al., J Biol Chem 276:31959-68, 2001) with modifications as follows. Briefly, 500 μl of unpolymerized matrigel at a concentration of 10 mg/ml enriched with bFGF (250 ng/ml) were mixed with one of the following: PBS (vehicle), prothrombin, or TRAP. Each mixture was injected subcutaneously at the left lower abdominal wall of C57/B mice (5 to 6-week old; Jackson laboratories; Bar Harbor, Me.). At day ten, the mice were sacrificed. The matrigel plugs were then excised, fixed in 4% paraformaldehyde, embedded in paraffin, sectioned, and H&E stained. Sections were examined by light microscopy, and the total number of blood vessels from 10 high power fields (400×) were counted in a blinded fashion. Only the micro-vessels containing red blood cells were counted as positive. Results shown represent the average of counts from 4 to 5 matrigel plugs per group.

[3] = tested on: 4T1 murine breast cancer cell line; test: Primary tumor growth of transfected 4T1 cells in BALB/c mice; type: in vivo; details: stable expression in 4T1 cells, mammary pad of BALB/c mice, vs empty vector, five weeks
Description: Construction of mutant uPA clones and cell transfection. We chose to pursue a genetic approach, in which we stably transfected an aggressive and highly metastatic murine breast cancer cell line (4T1) with the genes for wild type uPA, tPA and a receptor binding mutant of uPA (uPAm). We inserted the cDNA encoding murine tPA into pcDNA 3.1 (+) (Invitrogen), a CMV driven mammalian expression vector, by restriction enzyme digestion of BamHI and NheI. Wild type uPA cDNA was inserted to the pcDNA 3.1 (+) expression vector and the transfected into 4T1 cells in a similar fashion as described for the tPA cDNA. Residues 22, 27, 29 and 30 on the growth factor domain of the murine uPA molecule have been implicated in binding to mouse uPAR.
The pcDNA 3.1-tPA, pcDNA 3.1-wild type uPA, pcDNA 3.1-uPAm constructs, as well as an empty vector control were introduced into 4T1 cells by transfection using lipofectamine (Gibco-BRL) reagent. We selected 12-14 stable single clones in each group with 500 ug/mL of hygromycin. Each of the clones was evaluated for generation of the gene of interest by northern blot. The clones that had the highest generation of the genes of interest were selected. […]
Experiments using transfected tumor cells. […] Primary tumor size was measured every other day for a total of five weeks using calipers and calculated using the standard formula (width2×length×0.52). […]

[4] = tested on: microvessels in bFGF-containing matrigel plugs; test: In vivo angiogenesis (matrigel plug) assay, systemic treatment; parameters: species or system mice; details: rt-PA 60 μg subcutaneously/day, captopril 150 μg intraperitoneally/day, 10 days
Experimental: In Vivo Angiogenesis (Matrigel Plug) Assay. The matrigel-plug assay was performed as described in Maeshima et al., (Maeshima et al., J Biol Chem 275:21340-8, 2000; Maeshima et al., J Biol Chem 276:31959-68, 2001) with modifications as follows. All animal studies were reviewed and approved by the animal care and use committee of Beth Israel Deaconess Medical Center and are in accordance with the guidelines of the department of Health and Human Services. Five to six week-old male C57/BL6 mice (The Jackson Laboratories; Bar Harbor, Me.) were injected subcutaneously at the left lower abdominal wall with 0.5 ml of unpolymerized matrigel supplemented with 500 ng/ml of basic fibroblast growth factor for the stimulated controls and treatment groups and with equivalent volume of sterile PBS for the unstimulated (no b-FGF) control group. Mice (3 per group) were treated for 10 days with: 1) rt-PA (60 μg subcutaneously/day) and captopril (150 μg intraperitoneally/day). 2) Subcutaneous rt-PA alone with equivalent volume of intraperitoneal (IP) PBS. 3) IP captopril (150 μg) with equivalent volume of subcutaneous PBS. 4) Equivalent volumes of PBS (subcutaneously and intraperitoneally). […] Sections were examined by light microscopy, and the total number of blood vessels from 10 high power fields (400× magnification) were counted in a blinded fashion. […]

[5] = tested on: platelet aggregation; details: phenylalanine to alanine mutation at position 2; cited from earlier work

SFLLRN
endothelial cell tube formation ([1]; 50 and 100 μM SFLLRN): dose-dependent inhibitory effect on endothelial cell tube formation

Angiostatin
inhibition of tube formation ([1]; 10 μg/ml): did not significantly inhibit tube formation | inhibition of tube formation ([1]; 50 μg/ml): did not significantly inhibit tube formation

GYPGKF
endothelial cell tube formation ([1]; 100 μM peptide): little effect on tube formation

SLIGKV
endothelial cell tube formation ([1]; 100 μM peptide): little effect on tube formation

SFLLRNPNDKYEPF [TRAP]
reduction of bFGF-stimulated blood vessel formation in matrigel plugs ([2]; 250 ng/ml bFGF, day 10, 10 ρg/ml prothrombin, 250 μM TRAP (FIG. 13)): significantly reduced | endothelial cell tube formation ([1]; 1, 10, 100 μM TRAP): dose-dependently inhibited endothelial cell tube formation

bFGF: basic fibroblast growth factor (Peprotech), proangiogenic stimulant
increase in angiogenesis in matrigel plugs ([2]; 250 ng/ml bFGF vs no bFGF): seven-fold increase

wildtype uPA: murine wild type uPA expressed from pcDNA 3.1 in 4T1 cells
inhibition of primary tumor growth [3]: significantly inhibit tumor cell growth

thrombin
endothelial cell tube formation ([1]; thrombin at 5 U/ml (FIGS. 11D, 11E: 1 and 5 U/ml)): minimal effects on endothelial cell tube formation | endothelial cell tube formation ([1]; thrombin at 10 U/ml): significantly inhibits tube formation

C[C@H](CS)C(=O)N1CCC[C@H]1C(=O)O [captopril]
microvessel counts in matrigel plugs [4]: did not show major reduction of neovascularization | inhibition of tube formation ([1]; in the absence of plasma, rt-PA 1 μg/ml, captopril 0.1 μM): did not cause significant inhibition of tube formation

SALLRN
ability to induce platelet aggregation in vitro [5]: completely eliminated the ability of the peptide to induce platelet aggregation | endothelial cell tube formation ([1]; 100 μM peptide): no inhibitory effect

lepirudin
block of thrombin inhibition of tube formation ([1]; 10 U/ml thrombin with 200 U/ml lepirudin): completely blocked | endothelial cell tube formation ([1]; lepirudin alone at 200 U/ml): no effects in endothelial cell tube formation | block of prothrombin inhibition of tube formation ([1]; prothrombin with 200 U/ml lepirudin): completely blocked
